Results reported in US10556907B2 (AbbVie Inc., priority 2015, dated 2020).
Structures can show the parent of a compound that is named as a salt.

Tests used:
Assay in all cases: Method 1: intracellular Ca2+ release (FLIPR, Calcium 5) in recombinant CHO-K1 cells
Format in all cases: cell-based
human S1PR3 receptor = target: T1, human S1PR3 receptor (Homo sapiens, UniProt Q99500); settings: (1): determined with method 1; read-out: S1P3 EC50
T1 construct: host or cells: CHO-K1
In short: (§1)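 Cells expressing the receptor with promiscuous Gq/i5 are dye-loaded, equilibrated at room temperature and challenged with test compound while fluorescence is recorded by FLIPR. Potency is derived by nonlinear fitting after normalization to phospho-fingolimod.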

human S1PR4 receptor = target: T2, human S1PR4 receptor (Homo sapiens, UniProt O95977); settings: (1): determined with method 1; read-out: S1P4 EC50
T2 construct: host or cells: CHO-K1
T2 sequence (O95977 1-384): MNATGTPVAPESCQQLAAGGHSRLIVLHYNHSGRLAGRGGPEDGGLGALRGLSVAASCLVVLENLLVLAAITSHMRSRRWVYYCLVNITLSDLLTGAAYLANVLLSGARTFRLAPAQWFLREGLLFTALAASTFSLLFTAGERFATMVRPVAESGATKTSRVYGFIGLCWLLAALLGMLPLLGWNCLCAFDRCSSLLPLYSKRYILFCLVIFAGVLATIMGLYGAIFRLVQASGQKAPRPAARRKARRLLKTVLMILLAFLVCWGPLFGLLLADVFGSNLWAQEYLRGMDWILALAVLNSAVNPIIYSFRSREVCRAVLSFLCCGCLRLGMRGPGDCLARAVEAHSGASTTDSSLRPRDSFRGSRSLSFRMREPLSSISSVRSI
In short: as §1

human S1PR5 receptor = target: T3, human S1PR5 receptor (Homo sapiens, UniProt Q9H228); settings: agonist potency, determined with method 1 (symbols A-D); read-out: S1P5 EC50 range
T3 construct: host or cells: CHO-K1
In short: as §1

human S1PR1 receptor = target: T4, human S1PR1 receptor (Homo sapiens, UniProt P21453); settings: (1): determined with method 1; read-out: S1P1 EC50
T4 construct: host or cells: CHO-K1
In short: as §1

T1 sequence (Q99500 whole entry): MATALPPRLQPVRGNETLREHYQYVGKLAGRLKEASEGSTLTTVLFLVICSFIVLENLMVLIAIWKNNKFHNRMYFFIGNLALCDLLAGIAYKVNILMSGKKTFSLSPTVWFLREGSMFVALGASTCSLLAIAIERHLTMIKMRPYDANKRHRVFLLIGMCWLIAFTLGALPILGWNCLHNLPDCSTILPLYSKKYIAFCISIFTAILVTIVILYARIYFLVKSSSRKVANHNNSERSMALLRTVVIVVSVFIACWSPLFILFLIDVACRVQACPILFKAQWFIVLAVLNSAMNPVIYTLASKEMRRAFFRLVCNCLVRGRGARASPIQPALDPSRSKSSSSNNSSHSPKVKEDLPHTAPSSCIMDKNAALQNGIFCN
T3 sequence (Q9H228 whole entry): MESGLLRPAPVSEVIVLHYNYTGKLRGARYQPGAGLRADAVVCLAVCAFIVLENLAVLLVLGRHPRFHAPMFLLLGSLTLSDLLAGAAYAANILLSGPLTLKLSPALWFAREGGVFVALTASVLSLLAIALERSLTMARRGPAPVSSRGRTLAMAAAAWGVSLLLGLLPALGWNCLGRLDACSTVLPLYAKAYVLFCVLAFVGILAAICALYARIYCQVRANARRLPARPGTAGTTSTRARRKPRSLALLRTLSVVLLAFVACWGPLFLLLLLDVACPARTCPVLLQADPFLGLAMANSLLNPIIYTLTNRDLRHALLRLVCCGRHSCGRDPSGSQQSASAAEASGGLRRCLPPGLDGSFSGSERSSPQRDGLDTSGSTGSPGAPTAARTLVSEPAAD
T4 sequence (P21453 whole entry): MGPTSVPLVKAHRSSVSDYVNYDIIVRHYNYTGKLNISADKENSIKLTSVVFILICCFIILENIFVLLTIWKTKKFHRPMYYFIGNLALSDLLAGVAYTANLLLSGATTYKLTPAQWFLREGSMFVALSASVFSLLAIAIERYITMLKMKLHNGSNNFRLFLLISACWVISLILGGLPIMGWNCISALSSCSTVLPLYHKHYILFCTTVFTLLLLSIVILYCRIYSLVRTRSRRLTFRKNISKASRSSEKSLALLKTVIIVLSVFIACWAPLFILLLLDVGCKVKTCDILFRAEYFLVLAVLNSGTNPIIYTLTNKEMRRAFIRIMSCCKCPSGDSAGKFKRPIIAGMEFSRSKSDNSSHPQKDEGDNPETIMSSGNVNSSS

SMILES | EC50 (human S1PR3 receptor) [nM] | EC50 (human S1PR4 receptor) [nM] | EC50 (human S1PR5 receptor) [nM] | EC50 (human S1PR1 receptor) [nM]
O=C(O)CCN1CCc2nc(-c3ccc(OCc4ccc5c(c4)CCC5)cc3)ccc2C1 [Compound 162, 3-(2-(4-((5-indanyl)methoxy)phenyl)-7,8-dihydro-1,6-naphthyridin-6(5H)-yl)propanoic acid] | > 1000 | > 1000 | < 10 | > 1000
O=C(O)CCN1CCc2nc(-c3ccc(OCc4cccc(C(F)(F)F)c4)cc3)ccc2C1 [Compound 157, 3-(2-(4-((3-trifluoromethylbenzyl)oxy)phenyl)-7,8-dihydro-1,6-naphthyridin-6(5H)-yl)propanoic acid] | > 1000 | > 1000 | < 10 | > 1000
O=C(O)CCN1CCc2cc(OCc3c(Cl)cccc3Cl)ncc2C1 [Compound 219, 3-(6-((2,6-dichlorobenzyl)oxy)-3,4-dihydro-2,7-naphthyridin-2(1H)-yl)propanoic acid hydrochloride] | > 1000 | > 1000 | 100 to 1000 | > 1000
Cc1cc(-c2ccc3c(n2)CCN(CCC(=O)O)C3)ccc1OCc1ccc(Cl)cc1 [Compound 169, 3-(2-(4-((4-chlorobenzyl)oxy)-3-methylphenyl)-7,8-dihydro-1,6-naphthyridin-6(5H)-yl)propanoic acid] | > 1000 | > 1000 | < 10 | > 1000
CCc1cccc(Cl)c1COc1ncc2c(n1)CCN(CCC(=O)O)C2 [Compound 96, 3-(2-((2-chloro-6-ethylbenzyl)oxy)-7,8-dihydropyrido[4,3-d]pyrimidin-6(5H)-yl)propanoic acid] | > 1000 | > 1000 | 1000 to 10000 | > 1000
O=C(O)C1CC(N2CCc3nc(C#Cc4ccc(OCc5ccccc5)cc4)ccc3C2)C1 (stereo not shown) [Compound 125, 3-(2-((4-(benzyloxy)phenyl)ethynyl)-7,8-dihydro-1,6-naphthyridin-6(5H)-yl)cyclobutanecarboxylic acid] | > 1000 | > 1000 | 100 to 1000 | > 1000
O=C(O)C1CC(N2CCc3nc(C#Cc4ccc(F)cc4)ccc3C2)C1 (stereo not shown) [Compound 123, 3-(2-((4-fluorophenyl)ethynyl)-7,8-dihydro-1,6-naphthyridin-6(5H)-yl)cyclobutanecarboxylic acid] | > 1000 | > 1000 | 1000 to 10000 | > 1000
Cc1ccccc1C#Cc1ccc2c(n1)CCN(C1CC(C(=O)O)C1)C2 (stereo not shown) [Compound 121, 3-(2-(o-tolylethynyl)-7,8-dihydro-1,6-naphthyridin-6(5H)-yl)cyclobutanecarboxylic acid] | > 1000 | > 1000 | 1000 to 10000 | > 1000
O=C(O)CCN1CCc2nc(-c3ccc(OCc4cccc(C(F)F)c4)cc3)ccc2C1 [Compound 159, 3-(2-(4-((3-difluoromethylbenzyl)oxy)phenyl)-7,8-dihydro-1,6-naphthyridin-6(5H)-yl)propanoic acid] | > 1000 | > 1000 | < 10 | > 1000
O=C(O)CCN1CCc2nc(-c3ccc(OCc4cccc(F)c4)cc3)ccc2C1 [Compound 133, 3-(2-(4-((3-fluorobenzyl)oxy)phenyl)-7,8-dihydro-1,6-naphthyridin-6(5H)-yl)propanoic acid] | > 1000 | > 1000 | < 10 | > 1000
CCOc1ccc(C#Cc2ncc3c(n2)CCN(C2CC(C(=O)O)C2)C3)cc1 (stereo not shown) [Compound 56, 3-(2-((4-ethoxyphenyl)ethynyl)-7,8-dihydropyrido[4,3-d]pyrimidin-6(5H)-yl)cyclobutanecarboxylic acid] | > 1000 | > 1000 | 1000 to 10000 | > 1000
Cc1cc(-c2cc3c(cn2)CN(CCC(=O)O)CC3)ccc1OCc1ccc(Cl)cc1 [Compound 172, 3-(6-(4-((4-chlorobenzyl)oxy)-3-methylphenyl)-3,4-dihydro-2,7-naphthyridin-2(1H)-yl)propanoic acid] | > 1000 | > 1000 | < 10 | > 1000
O=C(O)C1CC(N2CCc3nc(C#Cc4ccc(F)cc4)ncc3C2)C1 (stereo not shown) [Compound 57, 3-(2-((4-fluorophenyl)ethynyl)-7,8-dihydropyrido[4,3-d]pyrimidin-6(5H)-yl)cyclobutanecarboxylic acid] | > 1000 | > 1000 | 1000 to 10000 | > 1000
Cc1ccc(C(F)(F)F)cc1COc1ccc(-c2ncc3c(n2)CCN(CCC(=O)O)C3)cc1 [Compound 88, 3-(2-(4-((2-methyl-5-(trifluoromethyl)benzyl)oxy)phenyl)-7,8-dihydropyrido[4,3-d]pyrimidin-6(5H)-yl)propanoic acid] | > 1000 | > 1000 | < 10 | > 1000
O=C(O)C1(CN2CCc3nc(-c4ccc(Cc5ccccc5)cc4)ncc3C2)CC1 [Compound 218, 1-((2-(4-benzylphenyl)-7,8-dihydropyrido[4,3-d]pyrimidin-6(5H)-yl)methyl)cyclopropanecarboxylic acid] | > 1000 | > 1000 | 1000 to 10000 | > 1000

Second part, the compound after the results:

EC50 (human S1PR3 receptor) [nM] | EC50 (human S1PR4 receptor) [nM] | EC50 (human S1PR5 receptor) [nM] | EC50 (human S1PR1 receptor) [nM] | SMILES
> 1000 | > 1000 | < 10 | > 1000 | CC(CC(=O)O)CN1CCc2nc(-c3ccc(CCc4ccc(Cl)cc4)cc3)ncc2C1 (stereo not shown) [Compound 244, 4-(2-(4-(4-chlorophenethyl)phenyl)-7,8-dihydropyrido[4,3-d]pyrimidin-6(5H)-yl)-3-methylbutanoic acid]
> 1000 | > 1000 | < 10 | > 1000 | Cc1cccc(COc2ccc(-c3ncc4c(n3)CCN(CC(C)CC(=O)O)C4)c(F)c2)c1C (stereo not shown) [Compound 231, 4-[2-[4-[(2,3-dimethylphenyl)methoxy]-2-fluoro-phenyl]-7,8-dihydro-5H-pyrido[4,3-d]pyrimidin-6-yl]-3-methyl-butanoic acid 2,2,2-trifluoroacetic acid salt]
> 1000 | > 1000 | 10 to 100 | > 1000 | CC(CC(=O)O)CN1CCc2nc(-c3ccc(OCc4ccc(Cl)c(Cl)c4)cc3F)ncc2C1 (stereo not shown) [Compound 271, 4-[2-[4-[(3,4-dichlorophenyl)methoxy]-2-fluoro-phenyl]-7,8-dihydro-5H-pyrido[4,3-d]pyrimidin-6-yl]-3-methyl-butanoic acid 2,2,2-trifluoroacetic acid salt]
> 1000 | > 1000 | 10 to 100 | > 1000 | Cc1ccc(COc2ccc(-c3ncc4c(n3)CCN(CC(C)CC(=O)O)C4)c(F)c2)cc1C(F)(F)F (stereo not shown) [Compound 279, 4-[2-[2-fluoro-4-[[4-methyl-3-(trifluoromethyl)phenyl]methoxy]phenyl]-7,8-dihydro-5H-pyrido[4,3-d]pyrimidin-6-yl]-3-methyl-butanoic acid 2,2,2-trifluoroacetic acid salt]
> 1000 | > 1000 | < 10 | < 1000 | Cc1ccc(COc2ccc(-c3ncc4c(n3)CCN(CC(C)CC(=O)O)C4)cc2)cc1 (stereo not shown) [Compound 248, 3-methyl-4-(2-(4-((4-methylbenzyl)oxy)phenyl)-7,8-dihydropyrido[4,3-d]pyrimidin-6(5H)-yl)butanoic acid]
> 1000 | > 1000 | < 10 | > 1000 | CC(CC(=O)O)CN1CCc2nc(-c3ccc(OCc4cccc(Cl)c4)cc3F)ncc2C1 (stereo not shown) [Compound 232, 4-(2-(4-((3-chlorobenzyl)oxy)-2-fluorophenyl)-7,8-dihydropyrido[4,3-d]pyrimidin-6(5H)-yl)-3-methylbutanoic acid]
> 1000 | > 1000 | < 10 | > 1000 | CC(CC(=O)O)CN1CCc2nc(-c3ccc(C(F)Cc4ccc(Cl)cc4F)cc3)ncc2C1 (stereo not shown) [Compound 253]
> 1000 | > 1000 | < 10 | > 1000 | CC(CC(=O)O)CN1CCc2nc(-c3ccc(OCc4ccc(Cl)cc4)cc3F)ncc2C1 (stereo not shown) [Compound 236, 4-(2-(4-((4-chlorobenzyl)oxy)-2-fluorophenyl)-7,8-dihydropyrido[4,3-d]pyrimidin-6(5H)-yl)-3-methylbutanoic acid]
> 1000 | > 1000 | < 10 | > 1000 | C[C@H](CC(=O)O)CN1CCc2nc(-c3ccc(CCc4ccc(Cl)cc4)cc3)ncc2C1 [Compound 237, (R)-4-(2-(4-(4-chlorophenethyl)phenyl)-7,8-dihydropyrido[4,3-d]pyrimidin-6(5H)-yl)-3-methylbutanoic acid]
> 1000 | > 1000 | < 10 | > 1000 | CC(CC(=O)O)CN1CCc2nc(-c3ccc(OCc4ccccc4F)cc3F)ncc2C1 (stereo not shown) [Compound 242, 4-[2-[2-fluoro-4-[(2-fluorophenyl)methoxy]phenyl]-7,8-dihydro-5H-pyrido[4,3-d]pyrimidin-6-yl]-3-methyl-butanoic acid 2,2,2-trifluoroacetic acid salt]
